# According to PMC2897767, “Two Distinct Mechanisms for Actin Capping Protein Regulation—Steric and Allosteric Inhibition” (PLoS Biology, 2010):
# Entries after “also recorded” stand apart in the source; their conditions may differ. Where no end group is shown, it is not given here.
# Experiments:
# CP [1] = experiment: SPR competition with immobilized GST-CA92 for CP binding; design: species or system chicken; conditions: 50 nM wild type CP pre-mixed with various concentrations of peptide (Figure S7)
# Method: (§1) GST-fusion proteins (GST-V-1, GST-CA, or GST-CD) were immobilized onto a CM5 sensor chip up to 200 RU (response units; 200 pg/mm^2) via anti-GST antibodies. […] Response curves were obtained by subtracting the background signal generated simultaneously on a control flow cell with immobilized GST. […] Kinetic parameters were determined by fitting the sensorgrams to a simple 1∶1 binding model, using the Bia-evaluation software (GE Healthcare). KD values were obtained from the kinetic rate constants.
# (0.25 MB TIF) Click here for additional data file.
# CPfull (wild type CP) = experiment: Actin polymerization assay (barbed end elongation from spectrin-actin seeds): inhibition of CP capping; type: biochemical, chicken; conditions: actin 1.2 µM (5% pyrene-labeled); for inhibition of barbed end capping by CARMIL peptides: 3.6 nM CPfull, various peptide concentrations, 25°C (Figure 9D); for inhibition of CP capping activity by V-1 proteins: 3 nM wild type CP, various concentrations of V-1, 25°C (Figure S2)
# Method: (A) Superposition of the C-termini of the peptides. CD Phe505 and CK Arg169 are shown as stick models. The conserved proline at the C-terminus of the motifs is shown as balls. (B) CD2AP constructs used for biochemical assays. (C) CARMIL constructs used for biochemical assays. […] Actin (1.2 µM, 5% pyrene-labeled) was polymerized from spectrin-actin seeds in the presence of 3.6 nM CPfull (D), 10 nM CPβΔC (E), or 7.2 nM CPfull (F) with various concentrations of CARMIL peptides or GST-CA constructs.
# The barbed end elongation assay from spectrin-actin seeds was performed essentially as previously described. Briefly, G-actin was stored in G-buffer (0.2 mM CaCl2, 0.2 mM ATP, 0.5 mM DTT and 10 mM imidazole, pH 7.0). At 90 s prior to polymerization, the Ca^2+ was replaced with Mg^2+, by the addition of 1/10 volume of 10 mM EGTA and 1 mM MgCl2 to G-actin. […] Actin polymerization was measured by monitoring the pyrene-actin fluorescence (excitation 370 nm; emission 410 nm) at 25°C.
# (0.16 MB TIF) Click here for additional data file.
# [2] = tested on: CP wt / GST-V-1 interaction; experiment: SPR assay of the effect of CARMIL peptides on CP/V-1 binding; design: species or system chicken CP, human V-1
# Method: GST-V-1 was immobilized on a sensor chip.
# as §1
# CP [3] = experiment: SPR binding of CP to immobilized GST-CD2AP / GST-CARMIL fragments; design: species or system chicken; conditions: 20°C; for koff / kon: SPR (Biacore), CP perfused, 1:1 binding model; for koff: GST-fusion immobilized; for kon: GST-fusion immobilized via anti-GST antibody on CM5 chip, 50 mM KCl, 1 mM MgCl2, 0.005% Tween-20, 10 mM imidazole pH 7.0
# Method: Expression vectors for chicken CPfull and CPΔβC were constructed in pETDuet-1 by PCR, using pET-3d/CP [38] as the template. CP was expressed in E. coli Rosetta2 (DE3) and was purified as described. V-1 (human), expressed in E. coli Rosetta2 (DE3) as a GST-fusion protein, was affinity-purified and the tag was removed. Synthetic peptides derived from CARMIL proteins were obtained from Invitrogen. For crystallization, CP was incubated with a 1.2–2.0-fold molar excess of V-1 or CARMIL peptides at 4°C for 2 h, followed by gel filtration to purify the complexes. Expression vectors for the GST-CA constructs were prepared from the mouse cDNA clone as previously described. Vectors for GST-CD fragments were constructed by PCR cloning using a human whole brain cDNA library (Clontech) as the template. Amplified DNA fragments were cloned into pGEX-6P-1. GST-fusion proteins were expressed in E. coli Rosetta2 (DE3) cells and affinity-purified using glutathione sepharose resin. Mutations were introduced using a Quikchange mutagenesis kit (Stratagene). Actin was prepared from rabbit skeletal muscle, as previously described, and was further purified by gel filtration chromatography. Pyrene labeled-actin was prepared as described. Spectrin-actin seeds were prepared from rabbit red blood cells, as previously described.
# (§2) The binding affinities of CP for V-1 or CARMIL proteins were evaluated by surface plasmon resonance measurements with Biacore 3000 or Biacore 2000 instruments (GE Healthcare). GST-fusion proteins (GST-V-1, GST-CA, or GST-CD) were immobilized onto a CM5 sensor chip up to 200 RU (response units; 200 pg/mm^2) via anti-GST antibodies. CP at various concentrations in running buffer (50 mM KCl, 1 mM MgCl2, 0.005% Tween-20, 10 mM imidazole, pH 7.0) was perfused over the chip at 20°C, at a flow rate of 20 µl/min. Response curves were obtained by subtracting the background signal generated simultaneously on a control flow cell with immobilized GST. To measure the effect of the CARMIL peptides on the facilitation of CP/V-1 dissociation (in Figure 11C and 11D), we used the “co-inject” mode for successive injections of the peptides followed by CP. Kinetic parameters were determined by fitting the sensorgrams to a simple 1∶1 binding model, using the Bia-evaluation software (GE Healthcare). KD values were obtained from the kinetic rate constants. […] KD values were evaluated by plotting these values against the concentrations of CP.
# CPfull (CP wt) = experiment: SPR binding of CP to immobilized V-1; design: species or system chicken; conditions: V-1 mutant immobilized, analyte CP wt, equilibrium KD from Michaelis-Menten plots at saturated binding, not detectable = no binding at highest concentrations tested (≥ 50 µM)
# Method: as §2
# ^a Kinetic parameters were determined by fitting of the sensorgrams to a 1:1 binding model. KD = koff / kon .
# ^b Kinetic parameters were not determined for mutant proteins, due to the fast dissociation of the complex (koff > 0.1 s^-1). […]
substance,measurement,setting,value
"CD23: synthetic peptide, human CD2AP residues 485–507 (CP-binding motif) (NLLHLTANRPKMPGRRLPGRFNG; UniProt Q9Y5K6 485-507, looked up, fragment)",competition with immobilized GST-CA92 for CP binding,CP [1],effectively compete
same,inhibition of barbed end capping by CARMIL peptides,CPfull (wild type CP),moderately inhibited
same,facilitation of dissociation of CP from immobilized GST-V-1,"[2]; 45 nM CP wt perfused first, then 100 nM peptide, versus buffer control (Figure 11C)",CP dissociated from V-1 quite rapidly
same,inhibition of CP/V-1 complex formation,"[2]; GST-V-1 immobilized, 100 nM peptide premixed with 45 nM CP wt (Figure 11A)",strongly inhibited
"CD30: peptide with 7 extra residues at the C-terminus of CD23 (NLLHLTANRPKMPGRRLPGRFNGGHSPTHS; UniProt Q9Y5K6 485-514, looked up, fragment)",inhibition of barbed end capping by CARMIL peptides,CPfull (wild type CP),higher CP inhibition activity than CD23
"GST-CA55: GST fusion of mouse CARMIL residues 962–1016 (FPSVRQEKRSSGLISELPSEEGRRLEHFTKLRPKRNKKQQPTQAAVCTISILPQD; also: GST fusion, end not given here)",koff,CP [3]; pH 7.0,>0.1 s⁻¹
same,KD (in words),"CP [3]; SPR, pH 7.0",micromolar range
"GST-CD43: GST fusion of human CD2AP residues 461–503 (FDSLTVRTSKETDVVNFDDIASSENLLHLTANRPKMPGRRLPG; also: GST fusion, end not given here)",koff,CP [3]; pH 7.0,>0.1 s⁻¹
"GST-CD44: GST fusion of human CD2AP residues 461–504 (FDSLTVRTSKETDVVNFDDIASSENLLHLTANRPKMPGRRLPGR; also: GST fusion, end not given here)",kon,CP [3],540000 M⁻¹ s⁻¹
same,koff,CP [3]; pH 7.0,0.033 s⁻¹
"GST-CD47: GST fusion of human CD2AP residues 461–507 (FDSLTVRTSKETDVVNFDDIASSENLLHLTANRPKMPGRRLPGRFNG; also: GST fusion, end not given here)",kon,CP [3],1.6e+06 M⁻¹ s⁻¹
same,koff,CP [3]; pH 7.0,0.029 s⁻¹
V-1 D44R: V-1 point mutant Asp44 to Arg,inhibition of CP capping activity by V-1 proteins,CPfull (wild type CP),little inhibitory effect; also recorded: minimal effects on CP capping
same,KD,CPfull (CP wt),not detectable ^c
V-1 E78R: V-1 point mutant Glu78 to Arg,inhibition of CP capping activity by V-1 proteins,CPfull (wild type CP),little inhibitory effect; also recorded: minimal effects on CP capping
same,Kd,CPfull (CP wt),21 µM
V-1 W8A: V-1 point mutant Trp8 to Ala,inhibition of CP capping activity by V-1 proteins,CPfull (wild type CP),little inhibitory effect; also recorded: minimal effects on CP capping
